# Test results reported in patent US20230192686A1, “1H-PYRROLO[2,3-B]PYRIDINES AND PREPARATION AND USES THEREOF” (BioSplice Therapeutics, Inc., priority 2021, published 2023).
# Biological target: recombinant DYRK1A kinase (Homo sapiens, UniProt Q13627)
# Test: DYRK1A kinase assay (Ser/Thr 18 peptide Z-lyte FRET)
# Assay type: biochemical
# Conditions: DYRK1A kinase activity; 15 μM ATP, 4 μM Ser/Thr peptide 18, one hour at room temperature
# In short: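 Recombinant DYRK1A at 0.25 μg/mL was incubated 1 h at room temperature with 15 μM ATP, 4 μM Ser/Thr 18 peptide and compound, in duplicate, 11-point series from 10 μM. Phosphorylation was read by Z-lyte FRET after 1 h protease development, as the coumarin/fluorescein emission ratio converted to % phosphorylation. IC50 by non-linear regression.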
row,Compound,EC50 [nM]
1,"O=C(Nc1cncc(F)c1)c1cnc2[nH]cc(-c3ccc4c(c3)C3(CCNCC3)CC4=O)c2c1 [Compound 764, N-(5-fluoropyridin-3-yl)-3-(3-oxo-2,3-dihydrospiro[indene-1,4′-piperidin]-6-yl)-1H-pyrrolo[2,3-b]pyridine-5-carboxamide]",22
2,"Cc1nc2c(F)cc(-c3c[nH]c4ncc(C(=O)Nc5ccc(N6CCN(C)CC6)nc5)cc34)cc2n1C(C)C [Compound 787, 3-(4-Fluoro-1-isopropyl-2-methyl-1H-benzo[d]imidazol-6-yl)-N-(6-(4-methylpiperazin-1-yl)pyridin-3-yl)-1H-pyrrolo[2,3-b]pyridine-5-carboxamide]",3
3,"CN1CCN(c2ccc(NC(=O)c3cnc4[nH]cc(-c5ccn6ncnc6c5)c4c3)cn2)CC1 [Compound 792, 3-([1,2,4]Triazolo[1,5-a]pyridin-7-yl)-N-(6-(4-methylpiperazin-1-yl)pyridin-3-yl)-1H-pyrrolo[2,3-b]pyridine-5-carboxamide]",10
4,"CN1CCN(c2ccc(NC(=O)c3cnc4[nH]cc(-c5ccn6ncc(C(=O)N7CCCCC7)c6c5)c4c3)cn2)CC1 [Compound 802, N-(6-(4-Methylpiperazin-1-yl)pyridin-3-yl)-3-(3-(piperidine-1-carbonyl)pyrazolo[1,5-a]pyridin-5-yl)-1H-pyrrolo[2,3-b]pyridine-5-carboxamide]",7
5,"CN1CCN(c2ccc(NC(=O)c3cnc4[nH]cc(-c5ccc6c(c5)C(C)(C)CNC6=O)c4c3)cn2)CC1 [Compound 813, 3-(4,4-Dimethyl-1-oxo-1,2,3,4-tetrahydroisoquinolin-6-yl)-N-(6-(4-methylpiperazin-1-yl)pyridin-3-yl)-1H-pyrrolo[2,3-b]pyridine-5-carboxamide]",3
6,"Cc1nc2c(F)cc(-c3c[nH]c4ncc(NC(=O)c5ccnc(N6CCNCC6)c5)cc34)cc2n1C(C)C [Compound 829, N-(3-(4-Fluoro-1-isopropyl-2-methyl-1H-benzo[d]imidazol-6-yl)-1H-pyrrolo[2,3-b]pyridin-5-yl)-2-(piperazin-1-yl)isonicotinamide]",2
7,"Cc1nc2c(F)cc(-c3c[nH]c4ncc(Nc5ccnc(N6CCN(C)CC6)c5)cc34)cc2n1C(C)C [Compound 871, 3-(4-Fluoro-1-isopropyl-2-methyl-1H-benzo[d]imidazol-6-yl)-N-(2-(4-methylpiperazin-1-yl)pyridin-4-yl)-1H-pyrrolo[2,3-b]pyridin-5-amine]",2
8,"Cc1nc2c(F)cc(-c3c[nH]c4ncc(-c5ccccc5)cc34)cc2n1C(C)C [Compound 913, 4-Fluoro-1-isopropyl-2-methyl-6-(5-phenyl-1H-pyrrolo[2,3-b]pyridin-3-yl)-1H-benzo[d]imidazole]",4
9,"Cc1ccccc1-c1cnc2[nH]cc(-c3cc(F)c4nc(C)n(C(C)C)c4c3)c2c1 [Compound 955, 4-Fluoro-1-isopropyl-2-methyl-6-(5-(o-tolyl)-1H-pyrrolo[2,3-b]pyridin-3-yl)-1H-benzo[d]imidazole]",20
10,"Cc1nc2c(F)cc(-c3c[nH]c4ncc(-c5cc(F)c(F)c(N6CCNCC6)c5)cc34)cc2n1C(C)C [Compound 997, 6-(5-(3,4-Difluoro-5-(piperazin-1-yl)phenyl)-1H-pyrrolo[2,3-b]pyridin-3-yl)-4-fluoro-1-isopropyl-2-methyl-1H-benzo[d]imidazole]",6
11,"Cn1cc(-c2cnc3[nH]cc(-c4ccc5nccn5c4)c3c2)cn1 [Compound 1036, 6-(5-(1-Methyl-1H-pyrazol-4-yl)-1H-pyrrolo[2,3-b]pyridin-3-yl) imidazo[1,2-a]pyridine]",2
12,"CN1CCN(C(=O)c2cnn3ccc(-c4c[nH]c5ncc(-c6cnn(C)c6)cc45)cc23)CC1 [Compound 1055, (5-(5-(1-Methyl-1H-pyrazol-4-yl)-1H-pyrrolo[2,3-b]pyridin-3-yl)pyrazolo[1,5-a]pyridin-3-yl)(4-methylpiperazin-1-yl)methanone]",9
13,"CN1CCC(Nc2ncnc3ccc(-c4c[nH]c5ncc(-c6cnn(C)c6)cc45)cc23)CC1 [Compound 1074, 6-(5-(1-Methyl-1H-pyrazol-4-yl)-1H-pyrrolo[2,3-b]pyridin-3-yl)-N-(1-methylpiperidin-4-yl)quinazolin-4-amine]",19
14,"Cc1nn(C)c(C)c1-c1cnc2[nH]cc(-c3cc(F)c4nc(C)n(C(C)C)c4c3)c2c1 [Compound 1081, 4-Fluoro-1-isopropyl-2-methyl-6-(5-(1,3,5-trimethyl-1H-pyrazol-4-yl)-1H-pyrrolo[2,3-b]pyridin-3-yl)-1H-benzo[d]imidazole]",2
15,"Cc1nc2c(F)cc(-c3c[nH]c4ncc(-c5cnn6c5CN(C)CC6)cc34)cc2n1C(C)C [Compound 1123, 3-(3-(4-Fluoro-1-isopropyl-2-methyl-1H-benzo[d]imidazol-6-yl)-1H-pyrrolo[2,3-b]pyridin-5-yl)-5-methyl-4,5,6,7-tetrahydropyrazolo[1,5-a]pyrazine]",4
16,"CN1CCn2ncc(-c3cnc4[nH]cc(-c5ccn6ncc(C(=O)Nc7cccnc7)c6c5)c4c3)c2C1 [Compound 1137, 5-(5-(5-Methyl-4,5,6,7-tetrahydropyrazolo[1,5-a]pyrazin-3-yl)-1H-pyrrolo[2,3-b]pyridin-3-yl)-N-(pyridin-3-yl)pyrazolo[1,5-a]pyridine-3-carboxamide]",4

row,Compound,EC50 [nM]
1,"CN1CCn2ncc(-c3cnc4[nH]cc(-c5ccc6ncncc6c5)c4c3)c2C1 [Compound 1154, 6-(5-(5-Methyl-4,5,6,7-tetrahydropyrazolo[1,5-a]pyrazin-3-yl)-1H-pyrrolo[2,3-b]pyridin-3-yl)quinazoline]",10
2,"Cc1nc2c(F)cc(-c3c[nH]c4ncc(-c5cccnc5)cc34)cc2n1C1CCN(C)CC1 [Compound 1166, 4-Fluoro-2-methyl-1-(1-methylpiperidin-4-yl)-6-(5-(pyridin-3-yl)-1H-pyrrolo[2,3-b]pyridin-3-yl)-1H-benzo[d]imidazole]",3
3,"CN1CCC(NC(=O)c2cnn3ccc(-c4c[nH]c5ncc(-c6cccnc6)cc45)cc23)CC1 [Compound 1178, N-(1-Methylpiperidin-4-yl)-5-(5-(pyridin-3-yl)-1H-pyrrolo[2,3-b]pyridin-3-yl)pyrazolo[1,5-a]pyridine-3-carboxamide]",6
4,"O=C1CC2(CCNCC2)Oc2cc(-c3c[nH]c4ncc(-c5cccnc5)cc34)ccc21 [Compound 1192, 7-(5-(Pyridin-3-yl)-1H-pyrrolo[2,3-b]pyridin-3-yl)spiro[chromane-2,4′-piperidin]-4-one]",10
5,"COc1ncnc2ccc(-c3c[nH]c4ncc(-c5cccnc5)cc34)cc12 [Compound 1197, 4-Methoxy-6-(5-(pyridin-3-yl)-1H-pyrrolo[2,3-b]pyridin-3-yl) quinazoline]",3
6,"CN1CCN(c2ncnc3ccc(-c4c[nH]c5ncc(-c6cccnc6)cc45)cc23)CC1 [Compound 1198, 4-(4-Methylpiperazin-1-yl)-6-(5-(pyridin-3-yl)-1H-pyrrolo[2,3-b]pyridin-3-yl)quinazoline]",3
7,"Cc1ncccc1-c1cnc2[nH]cc(-c3cc(F)c4nc(C)n(C(C)C)c4c3)c2c1 [Compound 1207, 4-Fluoro-1-isopropyl-2-methyl-6-(5-(2-methylpyridin-3-yl)-1H-pyrrolo[2,3-b]pyridin-3-yl)-1H-benzo[d]imidazole]",2
8,"Cc1ccncc1-c1cnc2[nH]cc(-c3cc(F)c4nc(C)n(C(C)C)c4c3)c2c1 [Compound 1249, 4-Fluoro-1-isopropyl-2-methyl-6-(5-(4-methylpyridin-3-yl)-1H-pyrrolo[2,3-b]pyridin-3-yl)-1H-benzo[d]imidazole]",2
9,"Cc1ccnc(C)c1-c1cnc2[nH]cc(-c3cc(F)c4nc(C)n(C(C)C)c4c3)c2c1 [Compound 1291, 6-(5-(2,4-Dimethylpyridin-3-yl)-1H-pyrrolo[2,3-b]pyridin-3-yl)-4-fluoro-1-isopropyl-2-methyl-1H-benzo[d]imidazole]",7
10,"Cc1nc2c(F)cc(-c3c[nH]c4ncc(-c5ccc(N6CCN(C)CC6)nc5)cc34)cc2n1C(C)C [Compound 1333, 4-Fluoro-1-isopropyl-2-methyl-6-(5-(6-(4-methylpiperazin-1-yl)pyridin-3-yl)-1H-pyrrolo[2,3-b]pyridin-3-yl)-1H-benzo[d]imidazole]",1
11,"CN1CCN(c2ccc(-c3cnc4[nH]cc(-c5ccc6ncccc6c5)c4c3)cn2)CC1 [Compound 1362, 6-(5-(6-(4-Methylpiperazin-1-yl)pyridin-3-yl)-1H-pyrrolo[2,3-b]pyridin-3-yl)quinoline]",1
12,"CN1CCN(c2cc(-c3cnc4[nH]cc(-c5cc6ccncc6s5)c4c3)ccn2)CC1 [Compound 1370, 2-(5-(2-(4-Methylpiperazin-1-yl)pyridin-4-yl)-1H-pyrrolo[2,3-b]pyridin-3-yl)thieno[2,3-c]pyridine]",6
13,"CN1CCN(c2cc(-c3cnc4[nH]cc(-c5ccc6nccn6c5)c4c3)ccn2)CC1 [Compound 1372, 6-(5-(2-(4-Methylpiperazin-1-yl)pyridin-4-yl)-1H-pyrrolo[2,3-b]pyridin-3-yl)imidazo[1,2-a]pyridine]",1
14,"Cc1nc2c(F)cc(-c3c[nH]c4ncc(-c5ccnc(N6CCN(C)CC6)c5)cc34)cc2n1C(C)C [Compound 1375, 4-Fluoro-1-isopropyl-2-methyl-6-(5-(2-(4-methylpiperazin-1-yl)pyridin-4-yl)-1H-pyrrolo[2,3-b]pyridin-3-yl)-1H-benzo[d]imidazole]",2
15,"CN1CCN(c2cc(-c3cnc4[nH]cc(-c5ccn6ncc(-c7cnn(C)c7)c6c5)c4c3)ccn2)CC1 [Compound 1384, 3-(3-(1-methyl-1H-pyrazol-4-yl)pyrazolo[1,5-a]pyridin-5-yl)-5-(2-(4-methylpiperazin-1-yl)pyridin-4-yl)-1H-pyrrolo[2,3-b]pyridine]",1
